We go through 32 compounds from patent publication US5171863A, “Intermediates for preparing 4-substituted 2-5(H)-furanones as anti-inflammatory agents” (Allergan, Inc., priority 1991, dated 1992).

For data set [1], the target named is bee venom phospholipase A2 (Apis mellifera, UniProt P00630). Nature of the data set: biochemical. The following applies: read-out: IC50 (micromolar), Phospholipase A2 Assay.
Data set [2] is described as follows: Isomerization upon standing. Format: physicochemical.
The test system of the next data set is Calcium Channel. Description: Calcium Channel (mobilization) Inhibition Assay. It counts as cell-based. The source says:
Calcium Channel (mobilization) Inhibition Assay
Polymorphonuclear leukocytes (PMNa), gastric glands, GH3 cells, A431 cells, spleen cells, human keratinocytes corneal cells, etc. were loaded with the Ca^2+ sensitive fluorescent dye, Fura-2. The appropriate cell type was chosen and the potency and efficacy of the anti-inflammatoryfuranones on calcium mobilization, calcium channel inhibition was quantitated. The methods used for A431 cells listed below are representative of those used for other cells.
A431 cells were detached using a 5-10 min trypsin-EDTA treatment whereas GH3 cells were treated 2 to 5 min with a 1% pancreatin solution. Cells were immediately washed twice in a 20 mM HEPES buffer (pH 7.4) containing 120 mM NaCl, 6 mM KCl, 1 mM MgSO4, 1 mg/ml glucose and 1 mg/ml pyruvate and 1.4 mM calcium (medium A). Approximately 5×10^6 cells were suspended in medium A and incubated with 4 uM fura-2-AM for 15 min at 37° C.
After washing the fura-2 loaded cells, the uptake of dye was checked using fluorescence microscopy and found to be evenly distributed in the cytosol of all cells. Fluorescence was continuously recorded with a Perkin-Elmer LS-5 spectrofluorometer. The excitation wavelength was set at 340 nm and emission wavelength set at 500 nm. The cell suspension was continually stirred, maintained at 37° C. and equilibrated for approximately 5 min before addition of various agents. [Ca^2+ i was calculated using the following formula: [formula]
All fluorescence values were measured relative to a EGTA-quenched signal determined as follows: F was the relative fluorescence measurement of the sample. Fmax was determined by lysing the cells with digitonin (100 ug/ml) in DMSO. After Fmax was determined the pH was adjusted to 8, with NaOH and Ca^2+ chelated with 3 mM EGTA to totally quench the fura-2 signal and obtain Fmin.
When quin-2- was used, cells were incubated with 10 uM quin-2- at 37° C. for 1 hour, washed and then used.
In the above-described phospholipase A2 (PLA2) and calcium^+ channel mobilization assays certain examplary compounds made from the synthetic intermediate compounds of the present invention had the following activities.

For data set [3] the following is noted: prior art; cited from earlier work.
Data set [4] concerns phosphoinositide-specific phospholipase C. The following applies: reported, Bennett et al, Molecular Pharmacology 32:587-593 (1987); cited from earlier work.
[5] abbreviates: read-out: IC50 (umolar) (KCl regulated), Calcium Channel Inhibition Assay.
The mark [6] stands for this setting: read-out: IC50 (umolar) (TRH regulated), Calcium Channel Inhibition Assay.

Each structure is given as a SMILES string. Like-named read-outs stand apart in the source and are kept apart here. A value given as a limit tells only on which side of the number the result lay.

Chain of bee venom phospholipase A2 (P00630 34-167 limits assumed): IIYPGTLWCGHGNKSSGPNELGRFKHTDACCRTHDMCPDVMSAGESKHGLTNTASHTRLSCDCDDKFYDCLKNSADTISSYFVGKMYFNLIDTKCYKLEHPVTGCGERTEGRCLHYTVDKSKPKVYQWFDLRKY

With `COCCOCOCC1=CC(=O)OC1O` (stereo not drawn) [Compound 20], the IC50 (in general, the midpoint of a concentration-inhibition curve) in data set [1] was > 1 µM.

Turning to `CCCCCCCCCCCCP(=O)(O)OCC1=CC(=O)OC1O` (stereo not drawn) [Compound 21, 4-(Dodecylohosphonyloxymethyl)-5-hydroxy-2(5H)-furanone], the IC50 in data set [1] was 0.03 µM.

With `CCCCCCCCCCCCNC(=O)OCC1=CC(=O)OC1O` (stereo not drawn) [Compound 22, 4-(N-Dodecylcarbamoyloxymethyl)-5-hydroxy-2(5H)-furanone], the IC50 in data set [1] was 0.05 µM.

Consider `CCCCCCCCCCCCOCC1=CC(=O)OC1O` (stereo not drawn) [Compound 23], for which the IC50 in data set [1] was found to be 0.04 µM.

Regarding `CCOP(=O)(OCC)OCC1=CC(=O)OC1O` (stereo not drawn) [Compound 24, 4-1-(Diethylphosphoryloxy)methyl-5-hydroxy-2(5H)-furanone], the IC50 in data set [1] is 0.34 µM.

Take `CCCCCCCCCCCC(=O)NCC1=CC(=O)OC1O` (stereo not drawn) [Compound 25, 4-(N-Dodecanoylaminomethyl)-5-hydroxy-2(5H)-furanone]: the IC50 in data set [1] came to 0.26 µM.

As to `CCCCCCCCCCCCNC(=O)NCC1=CC(=O)OC1O` (stereo not drawn) [Compound 26, 4-(N-Dodecylureido)methyl-5-hydroxy-2(5H)-furanone], the IC50 in data set [1] turned out to be 0.13 µM.

With `CCCCCCCCCCCCS(=O)(=O)NCC1=CC(=O)OC1O` (stereo not drawn) [Compound 27, 4-(N-Dodecylsulfonamido)-methyl-5-hydroxy-2(5H)-furanone], the IC50 in data set [1] is 0.04 µM.

With `CCCCCCCCCCCCC(OC(C)=O)C1=CC(=O)OC1O` (stereo not drawn) [Compound 28, 4(1-Acetoxytridecyl)-5-hydroxy-2(5H)-furanone], in data set [1], the IC50 was 0.04 µM.

Regarding `CCCCCCCCCCCCC(NC(C)=O)C1=CC(=O)OC1O` (stereo not drawn) [Compound 29], in data set [1], the IC50 worked out at 0.07 µM.

Take `CCCCCCCCCCCCC(NC(=O)C(F)(F)F)C1=CC(=O)OC1O` (stereo not drawn) [Compound 30]: in data set [1], the IC50 is 0.06 µM.

For the compound `CCCCCCCCCCCCC(NS(C)(=O)=O)C1=CC(=O)OC1O` (stereo not drawn) [Compound 31], in data set [1], the IC50 turned out to be 0.05 µM.

Regarding `CCCCCCCCCCCCC(NC(=O)NC)C1=CC(=O)OC1O` (stereo not drawn) [Compound 32, 4-[-1-(N-methylureido)tridecyl]-5-hydroxy-2(5H)-furanone], the IC50 in data set [1] turned out to be 0.48 µM.

As to `CCCCCCCCCCCC(=O)NCC(O)C1=CC(=O)OC1O` (stereo not drawn) [Compound 40, 4-(2-Undecanylamido-1-hydroxy)ethyl-5-hydroxy-2(5H)-furanone], the IC50 in data set [1] came out at 0.28 µM.

Regarding `CCCCCCCCCCCC(=O)NCC(OC(C)=O)C1=CC(=O)OC1O` (stereo not drawn) [Compound 41, 4-(1-Acetoxy-2-undecanylamido)ethyl-5-hydroxy-2(5H)-furanone], the half-inhibitory concentration (IC50) in data set [1] worked out at 0.04 µM.

For the compound `CCCCCCCCCCCC(=O)NCC(OC(=O)CCCCCCCCCCC)C1=CC(=O)OC1O` (stereo not drawn) [Compound 42, 4-(2-Undecanylamido-1-dodecanoyloxy)ethyl-5-hydroxy-2(5H)-furanone], the IC50 in data set [1] worked out at 0.03 µM.

With `CCCCCCCCCCCCS(=O)(=O)NCC(OC(C)=O)C1=CC(=O)OC1O` (stereo not drawn) [Compound 43, 4-[1-Acetoxy-2-(dodecanesulfonylamido)ethyl]-5-hydroxy-2(5H)-furanone], the IC50 in data set [1] turned out to be 0.03 µM.

With `CC(=O)OC(CNC(=O)CCCCCCCCCCC(=O)O)C1=CC(=O)OC1O` (stereo not drawn) [Compound 44], the IC50 in data set [1] was determined as 0.09 µM.

Consider `CCCCCCCCCCCC(=O)OC(CNC(=O)N1CCN(S(C)(=O)=O)CC1)C1=CC(=O)OC1O` (stereo not drawn) [Compound 45], for which the IC50 in data set [1] worked out at 0.05 µM.

With `CCCCCCCCCCCC(=O)OC(CNC(=O)N(CC)CC)C1=CC(=O)OC1O` (stereo not drawn) [Compound 46, 4-[1-Dodecanoyloxy-2-(N',N'-diethyl)carboxyamido]ethyl-5-hydroxy-2(5H)-furanone], in data set [1], the IC50 was found to be 0.02 µM.

With `CCCCCCCCCCCCSCC1=CC(=O)OC1O` (stereo not drawn) [Compound 47, 4-Dodecanethiomethyl-5-hydroxy-2(5H)-furanone], the IC50 in data set [1] worked out at 0.06 µM.

Consider `CCCCCCCCCCCC(=O)OCCCC1=CC(=O)OC1O` (stereo not drawn) [Compound 50], for which the IC50 in data set [1] was 0.5 µM.

As for `CCCCCCCCOC(=O)C=CC1=CC(=O)OC1O` (stereo not drawn) [Compound 51, Octyl 3-(5-hydroxy-2-on-4-furyl)propen-2-oate], the half-maximal inhibitory concentration (IC50) in data set [1] is 0.09 µM.

With `CCCCCCCCCCCCC(OC(C)=O)C1=CC(=O)OC1(C)O` (stereo not drawn) [Compound 60, 4-(1-Acetoxytridecyl)-5-hydroxy-5-methyl-2-furanone], in data set [1], the IC50 was determined as 0.06 µM. In data set [2], the “isomerization of epimers upon standing” value is listed as “isomerizes upon standing”.

On to `CCCCCCCCCCCCC(OC(C)=O)C1=C(C)C(=O)OC1O` (stereo not drawn) [Compound 61, 4-(1-Acetoxytridecyl)-3-methyl-5-hydroxy-2(5H)-furanone], for which the IC50 in data set [1] is > 1 µM.

On to `CCCCCCCCCCCCC(OC(=O)Nc1ccccc1)C1=CC(=O)OC1(C)O` (stereo not drawn) [Compound 62, 5-Methyl-5-hydroxy-4-(1-phenylcarbamoyloxy)tridecyl-2-furanone], for which the IC50 in data set [1] was 0.24 µM.

In the case of `CCCCCCCCC(OC(C)=O)C1=CCOC1=O` (stereo not drawn) [Compound 70, 3-(1-Acetoxynonyl)-2(5H)-furanone], the IC50 with Calcium Channel (setting [5]) came out at 3.4 µM; in the data set on Calcium Channel (setting [6]) it was 4.9 µM.

Take `CCCCCCCCCCCCC(O)C1=CCOC1=O` (stereo not drawn) [Compound 71, 3-(1-Hydroxytridecyl)-2(5H)-furanone]: the results for the IC50 with Calcium Channel (setting [5]) and with Calcium Channel (setting [6]) were 1.1 µM and 2 µM, respectively.

Turning to `CCCCCCCCCCCCC(OC(C)=O)C1=CCOC1=O` (stereo not drawn) [Compound 72, 3-(1-Acetoxytridecyl)-2(5H)-furanone], the IC50 was found to be 0.88 µM in the data set with Calcium Channel (setting [5]) and 16.9 µM with Calcium Channel (setting [6]).

Regarding `CC1=C(CC/C(C)=C/CCC(C=O)=CC=CC2=CC(=O)OC2O)C(C)(C)CCC1` (stereo not drawn) [dehydro-seco-manoalide], in data set [3], the “anti-inflammatory, immunosuppressive and analgesic properties” value is given as “anti-inflammatory activity”.

As to `CC1=C(CC/C(C)=C/CCC2=CCC(C3=CC(=O)OC3O)OC2O)C(C)(C)CCC1` (stereo not drawn) [manoalide, reference compound], the IC50 with Calcium Channel (setting [5]) and with Calcium Channel (setting [6]) was 1 µM each time. In data set [4], the “inhibition of phosphoinositide-specific phospholipase C” value was “inhibition of phosphoinositide-specific phospholipase C”. In addition, the “anti-inflammatory, immunosuppressive and analgesic properties” value in data set [3] was “anti-inflammatory,immunosuppressive and analgesic properties”.

As for `CC1=C(CC/C(C)=C/CCC(C=O)=CCC(O)C2=CC(=O)OC2O)C(C)(C)CCC1` (stereo not drawn) [seco-manoalide], the “anti-inflammatory, immunosuppressive and analgesic properties” value in data set [3] is “anti-inflammatory activity”.
